A short description of series [1]: Simulated Intestinal Fluid (SIF) Stability Assay. The series is classed as in vitro ADME, porcine. Particulars: pig, simulated intestinal fluid (SIF) with 1% porcine pancreatin, pH 6.5, Table 3-B; > means experiment was stopped at that time and half life was not reached; read-out: Stabilty SIF t1/2. How it is done:
Studies were carried out in simulated intestinal fluid (SIF) to evaluate intestinal stability of the peptide molecules of the instant invention. To prepare the SIF reagent, blank FASSIF was prepared by dissolving 0.348 g NaOH, 3.954 g sodium phosphate monobasic monohydrate and 6.186 g NaCl in a final volume of 1 liter water (final pH=6.5). To this solution, 24 g porcine pancreatin (Sigma catalog P7545) was added and stirred for 30 minutes (final pancreatin concentration is 2.4%). The solution was filtered through a cheese cloth and a No. 1 Whatman filter, and 10 ml aliquots were stored at −70° C. To run the reaction, a 10 ml aliquot was thawed at 37° C., and 125 ul aliquots were removed and mixed with an equal volume of blank FASSIF. The peptide stock solution (10 mM in 100% DMSO) was diluted 75-fold in blank FASSIF. A 50 μl aliquot of the diluted peptide was combined with 125 μl pancreatin (2.4%) and 125 μl blank FASSIF to yield final concentrations of 1% pancreatin and 22 μM peptide. The reactions were incubated at 37° C., and at various time points 50 μl aliquots were removed and added to 200 μl of quench solution containing 50% acetonitrile, 50% methanol, 5% formic acid, and 1 μg/ml internal standard. The quenched samples were centrifuged at 10,000 rpm for 10 minutes, and the supernatants were analyzed by LCMS/MS. The percent remaining at each time point was calculated based on the peak area response ratio of test to compound to internal standard. Half-lives were calculated by fitting to a first-order exponential decay equation using GraphPad.

Series [2] concerns the target α4β7 (Homo sapiens, UniProt P13612+P26010). Briefly: α4β7-MAdCAM Cell Adhesion Assay (RPMI 8866 human cells). Type of series: cell-based. On the set-up: host or cells: RPMI 8866 human B lymphoblastoid cells. Particulars: Table 3-B, Potency (α4β7); range classes; read-out: α4β7 cell (Hu) IC50. In a few lines:
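Washed RPMI 8866 cells (200,000/well) in DMEM with 0.1% BSA, 10 mM HEPES pH 7, 1 mM MnCl2 adhered to rh MAdCAM-1/Fc-coated wells with serially diluted peptides, 30-45 min at 37 °C. After three washes, bound cells quantified by MTT, A570, cell-free background subtracted for dose response.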

Numbered stars: 1 amine (or outer) side, 2 acyl side, 3 side chain; on linkers, the order of the positions; unused ones are H or OH. Bridge positions count the residues as written; N and C are the ends. Square brackets hold non-standard residues; d marks the D form. Peptide text beside a SMILES is read from it. I, II: the chains in the order shown. 2Nal = N[C@@H](Cc1ccc2ccccc2c1)C(=O)O; Diglycolyl = O=C(COCC(=O)[*:2])[*:1]; NMeR = CN[C@@H](CCCNC(=N)N)C(=O)O; hPhe = N[C@@H](CCc1ccccc1)C(=O)O; Tic = O=C(O)[C@@H]1Cc2ccccc2CN1; NMeK = CN[C@@H](CCCCN)C(=O)O; Pen = CC(C)(S)[C@H](N)C(=O)O; dNMeK = CN[C@H](CCCCN)C(=O)O; Dab = NCC[C@H](N)C(=O)O; Dap = NC[C@H](N)C(=O)O A value given as a limit tells only on which side of the number the result lay.

α4β7, sequence (P13612 34-1032): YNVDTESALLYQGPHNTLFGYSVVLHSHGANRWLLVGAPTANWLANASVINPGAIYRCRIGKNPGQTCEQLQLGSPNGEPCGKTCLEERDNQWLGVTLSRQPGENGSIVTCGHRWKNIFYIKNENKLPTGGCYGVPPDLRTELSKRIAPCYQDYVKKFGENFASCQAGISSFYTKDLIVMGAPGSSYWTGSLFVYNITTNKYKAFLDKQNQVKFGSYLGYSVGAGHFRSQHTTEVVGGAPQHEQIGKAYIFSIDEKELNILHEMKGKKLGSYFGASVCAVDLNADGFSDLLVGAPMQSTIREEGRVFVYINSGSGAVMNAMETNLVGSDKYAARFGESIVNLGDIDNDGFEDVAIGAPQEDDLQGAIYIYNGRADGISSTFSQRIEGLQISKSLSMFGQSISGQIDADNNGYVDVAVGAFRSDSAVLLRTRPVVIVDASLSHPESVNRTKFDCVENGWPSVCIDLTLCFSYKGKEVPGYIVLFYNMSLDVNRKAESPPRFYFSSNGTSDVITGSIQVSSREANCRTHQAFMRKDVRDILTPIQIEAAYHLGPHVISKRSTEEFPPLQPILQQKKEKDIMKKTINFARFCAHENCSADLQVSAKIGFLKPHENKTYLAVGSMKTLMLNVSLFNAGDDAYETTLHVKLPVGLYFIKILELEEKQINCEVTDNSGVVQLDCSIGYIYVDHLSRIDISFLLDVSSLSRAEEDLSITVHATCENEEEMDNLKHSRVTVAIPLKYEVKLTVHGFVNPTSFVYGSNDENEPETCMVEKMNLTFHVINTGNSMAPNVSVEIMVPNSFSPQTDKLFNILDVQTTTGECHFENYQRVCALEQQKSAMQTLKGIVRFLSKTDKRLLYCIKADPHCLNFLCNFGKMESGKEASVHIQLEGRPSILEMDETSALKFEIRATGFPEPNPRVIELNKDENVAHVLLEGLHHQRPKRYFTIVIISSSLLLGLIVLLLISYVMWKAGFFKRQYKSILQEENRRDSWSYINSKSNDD
α4β7, sequence (P26010 20-798): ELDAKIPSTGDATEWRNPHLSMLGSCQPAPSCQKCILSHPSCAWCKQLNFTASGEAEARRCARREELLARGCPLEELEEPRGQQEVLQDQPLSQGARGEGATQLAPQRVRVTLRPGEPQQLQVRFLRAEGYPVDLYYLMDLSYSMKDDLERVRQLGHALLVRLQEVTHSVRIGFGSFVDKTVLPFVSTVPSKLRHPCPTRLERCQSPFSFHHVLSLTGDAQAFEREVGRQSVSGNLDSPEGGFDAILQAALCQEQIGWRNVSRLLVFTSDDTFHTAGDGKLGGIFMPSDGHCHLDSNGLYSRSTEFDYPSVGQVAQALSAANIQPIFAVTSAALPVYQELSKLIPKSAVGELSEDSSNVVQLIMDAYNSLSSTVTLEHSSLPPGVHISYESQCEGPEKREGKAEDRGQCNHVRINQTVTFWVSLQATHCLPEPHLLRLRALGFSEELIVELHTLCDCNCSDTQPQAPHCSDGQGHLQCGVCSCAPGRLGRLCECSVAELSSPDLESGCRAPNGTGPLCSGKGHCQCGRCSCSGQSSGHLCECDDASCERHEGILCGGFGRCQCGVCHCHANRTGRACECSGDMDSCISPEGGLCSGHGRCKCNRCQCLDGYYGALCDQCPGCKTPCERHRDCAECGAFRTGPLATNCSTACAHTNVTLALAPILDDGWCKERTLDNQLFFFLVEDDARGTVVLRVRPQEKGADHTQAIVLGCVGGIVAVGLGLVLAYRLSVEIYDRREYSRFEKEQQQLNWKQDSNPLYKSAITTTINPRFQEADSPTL

In the case of `CC(=O)N[C@@H]1C(=O)N(C)[C@@H](CCCNC(=N)N)C(=O)N[C@@H](CO)C(=O)N[C@@H](CC(=O)O)C(=O)N[C@@H]([C@@H](C)O)C(=O)N[C@@H](CC(C)C)C(=O)N[C@H](C(=O)N[C@H](Cc2ccccc2)C(=O)N[C@H](CCC(=O)O)C(=O)N[C@H](CCCCNC(=O)COCC(=O)NCCCC[C@@H](NC(=O)[C@@H](CCC(=O)O)NC(=O)[C@@H](Cc2ccccc2)NC(=O)[C@H]2NC(=O)[C@H](CC(C)C)NC(=O)[C@H]([C@@H](C)O)NC(=O)[C@H](CC(=O)O)NC(=O)[C@H](CO)NC(=O)[C@H](CCCNC(=N)N)N(C)C(=O)[C@@H](NC(C)=O)C(C)(C)SSC2(C)C)C(N)=O)C(N)=O)C(C)(C)SSC1(C)C` [compound 2] (I: Ac-[Pen][NMeR]SDTL[Pen][dF][dE][dK]-NH2 / II: Ac-[Pen][NMeR]SDTL[Pen][dF][dE][dK]-NH2; disulfide I:1-I:7, II:1-II:7; linker I:10-II:10 via Diglycolyl), the half-life at 22 μM in series [1] is over 3 h. Also, the IC50 – broadly, the concentration that gives 50% inhibition – in series [2] lay in the range of 100 to 500 nM.
For `CC(=O)N[C@H](CCCCN)C(=O)N[C@H]1CSSC[C@@H](C(=O)N[C@@H](Cc2c[nH]c3ccccc23)C(=O)N[C@H](CCCCNC(=O)COCC(=O)NCCCC[C@@H](NC(=O)[C@H](Cc2c[nH]c3ccccc23)NC(=O)[C@@H]2CSSC[C@H](NC(=O)[C@@H](CCCCN)NC(C)=O)C(=O)N(C)[C@@H](CCCNC(=N)N)C(=O)N[C@@H](CO)C(=O)N[C@@H](CC(=O)O)C(=O)N[C@@H]([C@@H](C)O)C(=O)N[C@@H](CC(C)C)C(=O)N2)C(N)=O)C(N)=O)NC(=O)[C@H](CC(C)C)NC(=O)[C@H]([C@@H](C)O)NC(=O)[C@H](CC(=O)O)NC(=O)[C@H](CO)NC(=O)[C@H](CCCNC(=N)N)N(C)C1=O` [compound 4] (I: Ac-[dK]C[NMeR]SDTLCW[dK]-NH2 / II: Ac-[dK]C[NMeR]SDTLCW[dK]-NH2; disulfide I:2-I:8, II:2-II:8; linker I:10-II:10 via Diglycolyl), in that order: under 0.333 h and 10 to 25 nM.
Regarding `CC(=O)N[C@@H]1C(=O)N(C)[C@@H](CCCNC(=N)N)C(=O)N[C@@H](CO)C(=O)N[C@@H](CC(=O)O)C(=O)N[C@@H]([C@@H](C)O)C(=O)N[C@@H](CC(C)C)C(=O)N[C@H](C(=O)N[C@@H](Cc2ccc3ccccc3c2)C(=O)N[C@H](Cc2ccc(O)cc2)C(=O)N[C@H](CCCCNC(=O)COCC(=O)NCCCC[C@@H](NC(=O)[C@@H](Cc2ccc(O)cc2)NC(=O)[C@H](Cc2ccc3ccccc3c2)NC(=O)[C@H]2NC(=O)[C@H](CC(C)C)NC(=O)[C@H]([C@@H](C)O)NC(=O)[C@H](CC(=O)O)NC(=O)[C@H](CO)NC(=O)[C@H](CCCNC(=N)N)N(C)C(=O)[C@@H](NC(C)=O)C(C)(C)SSC2(C)C)C(N)=O)C(N)=O)C(C)(C)SSC1(C)C` [compound 27] (I: Ac-[Pen][NMeR]SDTL[Pen][2Nal][dY][dK]-NH2 / II: Ac-[Pen][NMeR]SDTL[Pen][2Nal][dY][dK]-NH2; disulfide I:1-I:7, II:1-II:7; linker I:10-II:10 via Diglycolyl), the half-life at 22 μM in series [1] is over 3 h. Further, the IC50 in series [2] is 25 to 50 nM.
In the case of `CC(=O)N[C@@H]1C(=O)N(C)[C@@H](CCCNC(=N)N)C(=O)N[C@@H](CO)C(=O)N[C@@H](CC(=O)O)C(=O)N[C@@H]([C@@H](C)O)C(=O)N[C@@H](CC(C)C)C(=O)N[C@H](C(=O)N[C@@H](Cc2ccc3ccccc3c2)C(=O)N[C@H](CCC(=O)O)C(=O)N(C)[C@H](CCCCNC(=O)COCC(=O)NCCCC[C@H](C(N)=O)N(C)C(=O)[C@@H](CCC(=O)O)NC(=O)[C@H](Cc2ccc3ccccc3c2)NC(=O)[C@H]2NC(=O)[C@H](CC(C)C)NC(=O)[C@H]([C@@H](C)O)NC(=O)[C@H](CC(=O)O)NC(=O)[C@H](CO)NC(=O)[C@H](CCCNC(=N)N)N(C)C(=O)[C@@H](NC(C)=O)C(C)(C)SSC2(C)C)C(N)=O)C(C)(C)SSC1(C)C` [compound 39] (I: Ac-[Pen][NMeR]SDTL[Pen][2Nal][dE][dNMeK]-NH2 / II: Ac-[Pen][NMeR]SDTL[Pen][2Nal][dE][dNMeK]-NH2; disulfide I:1-I:7, II:1-II:7; linker I:10-II:10 via Diglycolyl), the half-life at 22 μM in series [1] is over 3 h. The IC50 in series [2] was 10 to 25 nM.
For `CC(=O)N[C@@H]1C(=O)N(C)[C@@H](CCCNC(=N)N)C(=O)N[C@@H](CO)C(=O)N[C@@H](CC(=O)O)C(=O)N[C@@H]([C@@H](C)O)C(=O)N[C@@H](CC(C)C)C(=O)N[C@H](C(=O)N[C@@H](CCc2ccccc2)C(=O)N[C@@H](CCC(=O)O)C(=O)N[C@H](CCCCNC(=O)COCC(=O)NCCCC[C@@H](NC(=O)[C@H](CCC(=O)O)NC(=O)[C@H](CCc2ccccc2)NC(=O)[C@H]2NC(=O)[C@H](CC(C)C)NC(=O)[C@H]([C@@H](C)O)NC(=O)[C@H](CC(=O)O)NC(=O)[C@H](CO)NC(=O)[C@H](CCCNC(=N)N)N(C)C(=O)[C@@H](NC(C)=O)C(C)(C)SSC2(C)C)C(N)=O)C(N)=O)C(C)(C)SSC1(C)C` [compound 45] (I: Ac-[Pen][NMeR]SDTL[Pen][hPhe]E[dK]-NH2 / II: Ac-[Pen][NMeR]SDTL[Pen][hPhe]E[dK]-NH2; disulfide I:1-I:7, II:1-II:7; linker I:10-II:10 via Diglycolyl) the same measures were 0.617 h and 25 to 50 nM.
For `CC(=O)N[C@@H]1C(=O)N(C)[C@@H](CCCNC(=N)N)C(=O)N[C@@H](CO)C(=O)N[C@@H](CC(=O)O)C(=O)N[C@@H]([C@@H](C)O)C(=O)N[C@@H](CC(C)C)C(=O)N[C@H](C(=O)N[C@@H](Cc2c[nH]c3ccccc23)C(=O)N[C@H](CCC(=O)O)C(=O)N[C@@H](CN)C(N)=O)C(C)(C)SSC1(C)C` [compound 55] (Ac-[Pen][NMeR]SDTL[Pen]W[dE][Dap]-NH2; disulfide 1-7) the same measures were over 3 h and 100 to 500 nM.
Turning to `CC(=O)N[C@@H]1C(=O)N(C)[C@@H](CCCNC(=N)N)C(=O)N[C@@H](CO)C(=O)N[C@@H](CC(=O)O)C(=O)N[C@@H]([C@@H](C)O)C(=O)N[C@@H](CC(C)C)C(=O)N[C@H](C(=O)N[C@@H](Cc2c[nH]c3ccccc23)C(=O)N[C@H](CCC(=O)O)C(=O)N[C@@H](CCN)C(N)=O)C(C)(C)SSC1(C)C` [compound 56] (Ac-[Pen][NMeR]SDTL[Pen]W[dE][Dab]-NH2; disulfide 1-7), the half-life at 22 μM in series [1] is over 3 h. In addition, the IC50 in series [2] was 500 to 1000 nM.
For `CC(=O)N[C@@H]1C(=O)N(C)[C@@H](CCCNC(=N)N)C(=O)N[C@@H](CO)C(=O)N[C@@H](CC(=O)O)C(=O)N[C@@H]([C@@H](C)O)C(=O)N[C@@H](CC(C)C)C(=O)N[C@H](C(=O)N[C@@H](Cc2c[nH]c3ccccc23)C(=O)N(C)[C@@H](CCCCNC(=O)COCC(=O)NCCCC[C@@H](C(N)=O)N(C)C(=O)[C@H](Cc2c[nH]c3ccccc23)NC(=O)[C@H]2NC(=O)[C@H](CC(C)C)NC(=O)[C@H]([C@@H](C)O)NC(=O)[C@H](CC(=O)O)NC(=O)[C@H](CO)NC(=O)[C@H](CCCNC(=N)N)N(C)C(=O)[C@@H](NC(C)=O)C(C)(C)SSC2(C)C)C(N)=O)C(C)(C)SSC1(C)C` [compound 77] (I: Ac-[Pen][NMeR]SDTL[Pen]W[NMeK]-NH2 / II: Ac-[Pen][NMeR]SDTL[Pen]W[NMeK]-NH2; disulfide I:1-I:7, II:1-II:7; linker I:9-II:9 via Diglycolyl), in that order: over 3 h and 100 to 500 nM.
For `CC(=O)N[C@@H]1C(=O)N(C)[C@@H](CCCNC(=N)N)C(=O)N[C@@H](CO)C(=O)N[C@@H](CC(=O)O)C(=O)N[C@@H]([C@@H](C)O)C(=O)N[C@@H](CC(C)C)C(=O)N[C@H](C(=O)N2Cc3ccccc3C[C@H]2C(=O)N[C@H](CCC(=O)O)C(=O)N[C@H](CCCCNC(=O)COCC(=O)NCCCC[C@@H](NC(=O)[C@@H](CCC(=O)O)NC(=O)[C@@H]2Cc3ccccc3CN2C(=O)[C@H]2NC(=O)[C@H](CC(C)C)NC(=O)[C@H]([C@@H](C)O)NC(=O)[C@H](CC(=O)O)NC(=O)[C@H](CO)NC(=O)[C@H](CCCNC(=N)N)N(C)C(=O)[C@@H](NC(C)=O)C(C)(C)SSC2(C)C)C(N)=O)C(N)=O)C(C)(C)SSC1(C)C` [compound 80] (I: Ac-[Pen][NMeR]SDTL[Pen][Tic][dE][dK]-NH2 / II: Ac-[Pen][NMeR]SDTL[Pen][Tic][dE][dK]-NH2; disulfide I:1-I:7, II:1-II:7; linker I:10-II:10 via Diglycolyl), in that order: over 3 h and 50 to 100 nM.
